We go through three compounds from PMC6099238 (Journal of Clinical Pharmacology, 2018).

Like-named read-outs stand apart in the source and are kept apart here.

The test system of one data set is urinary urate excretion. In words: Urinary excretion of urate, fractional excretion of urate and xanthine. It is filed as in vivo, patients with gout.
Another data set has as its system serum uric acid. The data set can be described thus: Serum uric acid lowering, phase 1b open-label multiple-dose study. It is filed as in vivo, patients with gout. Conditions: for serum uric acid: Change From Baseline, Emax (maximum percentage change from baseline in serum uric acid lowering) / serum uric acid: Change From Baseline, Predose / Subjects With Predose Serum Uric Acid <4 mg/dL / Subjects With Predose Serum Uric Acid <5 mg/dL / Subjects With Predose Serum Uric Acid <6 mg/dL: group 2; for serum uric acid: Change From Baseline, Emax (maximum percentage change from baseline in serum uric acid lowering) / serum uric acid: Change From Baseline, Predose: ALLO 300 mg/day alone (day 7), ALLO 300 mg/LESU 600 mg (day 14), LESU 600 mg/day alone (day 21), % (SE); for Subjects With Predose Serum Uric Acid <4 mg/dL / Subjects With Predose Serum Uric Acid <5 mg/dL / Subjects With Predose Serum Uric Acid <6 mg/dL: ALLO 300 mg/day alone (day 7, n = 10), ALLO 300 mg/LESU 600 mg (day 14, n = 10), LESU 600 mg/day alone (day 21, n = 9).

Another data set relates to URAT1. To be noted: cited from earlier work.
Data set [1] is classed as in vivo, patients with gout.
Setting [2] is: ALLO 300 mg/LESU 400 mg versus ALLO 300 mg alone.
Where [3] appears, read: ALLO 300 mg/LESU 600 mg versus ALLO 300 mg alone.

Consider `O=C(O)CSc1nnc(Br)n1-c1ccc(C2CC2)c2ccccc12` [lesinurad], for which the “effect on xanthine excretion (urine)” value in the data set on urinary urate excretion (single agent) is given as “no significant effect”. In the data set with serum uric acid, the “serum uric acid: Change From Baseline, Emax (maximum percentage change from baseline in serum uric acid lowering)” value is reported as −46.7 (5.5) %; the “serum uric acid: Change From Baseline, Predose” value is recorded as −37.2 (1.6) %; the “Subjects With Predose Serum Uric Acid <4 mg/dL” value was 0 n (%); the “Subjects With Predose Serum Uric Acid <5 mg/dL” value was 3 (33) n (%). Also, the “Subjects With Predose Serum Uric Acid <6 mg/dL” value in the data set with serum uric acid is 6 (67) n (%). Further, the “serum uric acid reduced by” value in the data set on serum uric acid (lesinurad 400 mg/day, added to allopurinol 300 mg/day or alone (abstract)) was found to be 44%. Also, in the data set with serum uric acid (lesinurad 600 mg/day, added to allopurinol 300 mg/day or alone (abstract)), the “serum uric acid reduced by” value was 47%.
By Cmax is commonly meant the peak of the concentration-time curve. For `O=c1[nH]c(=O)c2c[nH]nc2[nH]1` [oxypurinol], the transporter substrate entry with URAT1 was “substrate of URAT1”. Moreover, the “Oxypurinol AUC0‐24 Geometric Mean Ratio (90%CI) (Combination/Alone)” value in data set [1] (setting [2]) is 74.2 (65.1‐84.7); in data set [1] (setting [3]), 64.7 (61.3‐68.3). For the same compound, the results for the “Oxypurinol Cmax Geometric Mean Ratio (90%CI) (Combination/Alone)” value in data set [1] (setting [2]) and in data set [1] (setting [3]) were 79.4 (69.8‐90.3) and 71.7 (67.8‐75.7), respectively. Further, the “Decrease of oxypurinol plasma concentrations” value in data set [1] (during co-administration of lesinurad 400 mg with allopurinol 300 mg) was “approximately 26%”; in data set [1] (during co-administration of lesinurad 600 mg with allopurinol 300 mg), ~35%. For the same compound, in data set [1] (human, plasma, oral, Oxypurinol Cmax, ALLO 300 mg/LESU 600 mg co-administration, geometric mean, n = 10), the Cmax stood at 9660 ng/mL. Moreover, the “Oxypurinol Tmax” value in data set [1] (plasma, ALLO 300 mg alone, group 1 (before LESU 400 mg), median (range), n = 10) is given as 4.00 (3.00‐6.00) h. Also, the “Oxypurinol Cmax” value in data set [1] (plasma, ALLO 300 mg/LESU 400 mg co-administration, geometric mean, n = 10) is reported as 9.82 (8.66‐11.1) μg/mL.
As to `Oc1ncnc2[nH]ncc12` [allopurinol], in the data set on urinary urate excretion (allopurinol 300 mg alone), the “decrease of 24‐hour urate excretion compared with baseline” value is ~35%. Also, the “Mean 24‐hour urate excretion compared with baseline” value in the data set on urinary urate excretion (allopurinol 300 mg/day alone) is given as “–35%”. For the same compound, in the data set with urinary urate excretion (single agent), the “effect on fractional excretion of urate” value is recorded as “no effect” and the “effect on xanthine excretion (urine)” value is recorded as “increased”. For the same compound, the “Emax (serum uric acid lowering)” value with serum uric acid (allopurinol 300 mg (discussion)) is −37%. Besides, the “serum uric acid reduced by” value in the data set on serum uric acid (allopurinol 300 mg/day alone (abstract)) came to 37%. In the data set on serum uric acid, the “serum uric acid: Change From Baseline, Emax (maximum percentage change from baseline in serum uric acid lowering)” value is on record as −35.1 (2.3) %; the “serum uric acid: Change From Baseline, Predose” value is recorded as −28.7 (2.4) %; the “Subjects With Predose Serum Uric Acid <4 mg/dL” value was 0 n (%); the “Subjects With Predose Serum Uric Acid <5 mg/dL” value is 1 (10) n (%). For the same compound, the “Subjects With Predose Serum Uric Acid <6 mg/dL” value in the data set on serum uric acid is on record as 3 (30) n (%).
